One data set concerns mice. As to the kind of experiment: Dispair test (Porsolt) in mice. It counts as in vivo, Swiss strain male mice (CD-1 Charles River). The note with it: for immobility duration: 1 hour before test; for minimal effective dose: Dispair test, i.p., read-out: active dosage. Here is the method: This behaviouristic test conceived by Porsolt (1977 --Nature, 266 730-732 is generally utilized to evaluate the antidepressant activity.
Swiss strain male mice of average weight of 30 g (CD -1 Charles River) casually assigned to the different treatment groups are used.
The method consists in placing the animal in a plexiglas cylinder 25 cm high and with a diameter of 9 cm filled with water at 24° C. up to a level of 6 cm.
The test lasts 6 minutes and the time in which the animal lets itself float without reacting is measured starting from the 2nd minute (immobility duration).
The animals ape treated by intraperitoneal route (injection volume 10 ml/kg) 1 hour before the test.
The evaluation is carried out in blind. The statistical analysis of the results is carried out where it is possible by means of the T-Student test, otherwise the non parametric test of Mann Whitney is used.

A short description of data set [1]: Acute toxicity (LD50) in mice. The note with it: mouse, in vivo, read-out: LD50 (DL50).
The test system of another data set is rats. As to the kind of experiment: Social Interaction test in rats (anxiolythic activity). It counts as in vivo, Sprague-Dawley male rats. The note with it: 1 hour before test, vs controls. The source says: The behaviouristic Social Interaction test found by FILE was used. (Animal models of psychiatric disorders, vol. 1 Karger, Basel, pp 151-166).
It consists in an experimental procedure permitting to evaluate the influence of the pharmacological treatment on the spontaneous behaviour of the rat, by means of the social component which in this animal is particularly accentuated.
Sprague-Dawley male rats weighing about 250 g are used. After a normal stabling period (2 weeks), the animal are isolated in smaller cages (267×207×140 mm surface 410 cm^2) for a period of about 5 days.
Then the rats are gathered into couples, avoiding that weight difference between the two animals overcomes 10 g and that the couple components had not previously stabled together.
The couple thus gathered are assigned to the respective treatment group.
Diazepam was utilized as the positive control drug: 1,25 mg/kg are intraperitoneally administered 30' before carrying out the test.
The compounds to be tested are administered 1 hour before carrying out the test.
The box utilized [55×55×30 cm (height)] for the animal observation is white, completely washable and provided with a floor split up into 25 squares.
A 100 Watt lamp is placed upon the box at 50 cm from the floor. The test is realized in a remote room whose only light source is represented by the lamp lighting the box.
The evaluation is carried out in blind. The animals are observed indirectly, by means of a mirror suitably placed.
Evaluated parameters: time passed in Social Interaction (sniffing pursuit, grooming, boxing etc.).
The box is systematically cleaned up after every test.
The results are expressed as a function of a percentage increase of Social Interaction of the treated animals in comparison with the controls.

[2] abbreviates: Mus musculus, ip, 1 h, 0.25 mg/kg i.p., vs control (dosage 0), read-out: immobility duration < % (decrease).
Where [3] appears, read: Mus musculus, ip, 1 h, 0.5 mg/kg i.p., vs control (dosage 0), read-out: immobility duration < % (decrease).
[4] abbreviates: Mus musculus, ip, 1 h, 1 mg/kg i.p., vs control (dosage 0), read-out: immobility duration < % (decrease).
[5] abbreviates: Mus musculus, ip, 1 h, 0.1 mg/kg i.p., vs control (dosage 0), read-out: immobility duration < % (decrease).

Like-named read-outs stand apart in the source and are kept apart here. Bounds are passed on as bounds.

Usually LD50 stands for the dose expected to kill half of the subjects tested.

As to `CC(=O)Nc1nnc(SCc2ccccc2)s1` [B17, 2-acetylamino-5-benzylmercapto-1,3,4-thiadiazole], the immobility duration in the data set on mice (0.03 mg/kg i.p.) is given as 198 ± 16; in the data set with mice (0.06 mg/kg i.p.), 159 ± 38; in the data set with mice (0.125 mg/kg i.p.), 167 ± 22; in the data set with mice (0.25 mg/kg i.p.), 183 ± 20; in the data set with mice (0.5 mg/kg i.p.) it was 182 ± 25; in the data set on mice (1 mg/kg i.p.), 187 ± 36. Besides, the inhibition in vivo at 0.06 mg/kg with mice (Mus musculus, ip, 1 h, 0.06 mg/kg i.p., vs control (dosage 0), read-out: immobility duration < % (decrease)) is 22%. In addition, the inhibition in vivo at 0.125 mg/kg with mice (Mus musculus, ip, 1 h, 0.125 mg/kg i.p., vs control (dosage 0), read-out: immobility duration < % (decrease)) came to 17%. Also, the inhibition in vivo at 0.25 mg/kg in the data set on mice (setting [2]) was determined as 10%. Further, in the data set on mice (setting [3]), the inhibition in vivo at 0.5 mg/kg was determined as 10%. In addition, in the data set on mice (Mus musculus, ip, 1 h), the minimal effective dose is approximately 0.5 mg/kg. The 50% lethal dose (LD50) in data set [1] (ip) is more than 1000 mg/kg; in data set [1] (po, per os), more than 1000 mg/kg.

For `CSc1nnc(N)s1` [B21], the immobility duration in the data set on mice (20 mg/kg i.p.) stood at 187 ± 13; with mice (25 mg/kg i.p.), 175 ± 31; with mice (50 mg/kg i.p.) it was 161 ± 26; in the data set with mice (60 mg/kg i.p.), 176 ± 21; with mice (75 mg/kg i.p.), 170 ± 39; with mice (100 mg/kg i.p.), 187 ± 25. For the same compound, in the data set on mice (Mus musculus, ip, 1 h, 20 mg/kg i.p., vs control (dosage 0), read-out: immobility duration < % (decrease)), the inhibition in vivo at 20 mg/kg was determined as 8%. For the same compound, in the data set with mice (Mus musculus, ip, 1 h, 25 mg/kg i.p., vs control (dosage 0), read-out: immobility duration < % (decrease)), the inhibition in vivo at 25 mg/kg was 16%. Moreover, the inhibition in vivo at 50 mg/kg in the data set with mice (Mus musculus, ip, 1 h, 50 mg/kg i.p., vs control (dosage 0), read-out: immobility duration < % (decrease)) worked out at 23%. Further, the inhibition in vivo at 60 mg/kg with mice (Mus musculus, ip, 1 h, 60 mg/kg i.p., vs control (dosage 0), read-out: immobility duration < % (decrease)) amounted to 16%. Besides, in the data set on mice (Mus musculus, ip, 1 h, 75 mg/kg i.p., vs control (dosage 0), read-out: immobility duration < % (decrease)), the inhibition in vivo at 75 mg/kg was 19%. The inhibition in vivo at 100 mg/kg in the data set on mice (Mus musculus, ip, 1 h, 100 mg/kg i.p., vs control (dosage 0), read-out: immobility duration < % (decrease)) was found to be 11%. The LD50 in data set [1] (ip) was more than 1000 mg/kg.

With `CC(C)Sc1nnc(N)s1` [B35], the immobility duration in the data set with mice (10 mg/kg i.p.) worked out at 165 ± 42; in the data set on mice (15 mg/kg i.p.), 194 ± 14; in the data set on mice (20 mg/kg i.p.), 185 ± 11. In the data set on mice (Mus musculus, ip, 1 h, 10 mg/kg i.p., vs control (dosage 0), read-out: immobility duration < % (decrease)), the inhibition in vivo at 10 mg/kg stood at 17%. Besides, the minimal effective dose with mice (Mus musculus, ip, 1 h) was determined as 10 mg/kg.

Take `CC(=O)Nc1nnc(SC(C)C)s1` [B36, 2-N-acethyl-5-isopropylmercapto-1,3,4thiadiazole]: the immobility duration is 178 ± 33 with mice (0.5 mg/kg i.p.); 159 ± 23 in the data set on mice (1 mg/kg i.p.); 188 ± 16 with mice (2.5 mg/kg i.p.); 196 ± 22 in the data set on mice (5 mg/kg i.p.); 199 ± 15 with mice (12.5 mg/kg i.p.). Moreover, the inhibition in vivo at 1 mg/kg in the data set on mice (setting [4]) came to 19%. In the data set on mice (Mus musculus, ip, 1 h), the minimal effective dose is 1 mg/kg.

Turning to `CC(=O)N(C)c1nnc(SC(C)C)s1` [B39, 2-(N-methyl-N-acethyl)-amino-5-isopropylmercapto-1,3,4-thiadiazole], the immobility duration in the data set on mice (0.125 mg/kg i.p.) is recorded as 180 ± 19; with mice (0.25 mg/kg i.p.), 155 ± 36; in the data set with mice (0.5 mg/kg i.p.), 169 ± 30; in the data set with mice (1 mg/kg i.p.) it was 161 ± 14; in the data set on mice (5 mg/kg i.p.), 176 ± 28; with mice (10 mg/kg i.p.), 204 ± 18. Besides, the inhibition in vivo at 0.25 mg/kg in the data set with mice (setting [2]) stood at 18%. Also, the inhibition in vivo at 0.5 mg/kg in the data set with mice (setting [3]) turned out to be 10%. The inhibition in vivo at 1 mg/kg in the data set with mice (setting [4]) worked out at 14%.

On to `CC(=O)Nc1nnc(SCc2ccc([N+](=O)[O-])cc2)s1` [B45], for which the immobility duration in the data set on mice (0.1 mg/kg i.p.) stood at 182 ± 22; in the data set on mice (0.25 mg/kg i.p.) it was 167 ± 26; in the data set on mice (0.5 mg/kg i.p.) it was 166 ± 18; in the data set with mice (1 mg/kg i.p.) it was 183 ± 17. In addition, the inhibition in vivo at 0.25 mg/kg in the data set on mice (setting [2]) is 16%. Besides, the inhibition in vivo at 0.5 mg/kg in the data set on mice (setting [3]) is 16%.

Regarding `COc1ccc(CSc2nnc(N)s2)cc1` [B51], the immobility duration was determined as 200 ± 19 in the data set with mice (0.01 mg/kg i.p.); 164 ± 29 in the data set with mice (0.03 mg/kg i.p.); 166 ± 13 in the data set with mice (0.1 mg/kg i.p.); 158 ± 24 with mice (0.3 mg/kg i.p.); 174 ± 40 with mice (1.25 mg/kg i.p.); 189 ± 15 in the data set with mice (5 mg/kg i.p.). Further, the inhibition in vivo at 0.03 mg/kg in the data set on mice (Mus musculus, ip, 1 h, 0.03 mg/kg i.p., vs control (dosage 0), read-out: immobility duration < % (decrease)) came to 13%. Further, the inhibition in vivo at 0.1 mg/kg in the data set with mice (setting [5]) was 12%. Also, in the data set on mice (Mus musculus, ip, 1 h, 0.3 mg/kg i.p., vs control (dosage 0), read-out: immobility duration < % (decrease)), the inhibition in vivo at 0.3 mg/kg was found to be 16%. The minimal effective dose with mice (Mus musculus, ip, 1 h) was approximately 0.5 mg/kg.

Consider `COc1ccc(CSc2nnc(NC(C)=O)s2)cc1` [B53], for which the immobility duration with mice (0.1 mg/kg i.p.) was 182 ± 16; with mice (0.5 mg/kg i.p.), 165 ± 25; in the data set on mice (1 mg/kg i.p.), 151 ± 29; in the data set on mice (2 mg/kg i.p.) it was 195 ± 31. The inhibition in vivo at 0.5 mg/kg with mice (setting [3]) was 10%. Also, the inhibition in vivo at 1 mg/kg with mice (setting [4]) stood at 15%.

Turning to `COc1cccc(CSc2nnc(N)s2)c1` [B63], the immobility duration in the data set on mice (0.05 mg/kg i.p.) turned out to be 187 ± 34; in the data set on mice (0.1 mg/kg i.p.), 171 ± 26; in the data set on mice (0.25 mg/kg i.p.) it was 159 ± 22; in the data set on mice (0.5 mg/kg i.p.) it was 166 ± 25; in the data set with mice (1 mg/kg i.p.), 174 ± 30; in the data set with mice (10 mg/kg i.p.), 187 ± 26. The inhibition in vivo at 0.1 mg/kg in the data set on mice (setting [5]) came to 15%. Besides, in the data set with mice (setting [2]), the inhibition in vivo at 0.25 mg/kg stood at 21%. Besides, in the data set with mice (setting [3]), the inhibition in vivo at 0.5 mg/kg was 18%. Moreover, in the data set with mice (setting [4]), the inhibition in vivo at 1 mg/kg came to 14%. In addition, the “Social Interaction increase (%)” value with rats (0.25 mg/kg) is 14%; in the data set on rats (0.5 mg/kg), 40%; in the data set with rats (1 mg/kg), 70%; in the data set on rats (2.5 mg/kg), 73%.

For the compound `CN(C)CCCN1c2ccccc2CCc2ccccc21` [imipramine, reference compound], the minimal effective dose in the data set on mice (Mus musculus, ip, 1 h) came out at 20 mg/kg.
